Results published in US4181802A, “1-(Heterocyclylalkyl)-1,3-dihydro-2-H-benzimidazole-2-ones” (Janssen Pharmaceutica N.V., priority 1978, dated 1980).
Read-outs that look alike come from different tables or passages of the source.

Tests used:
Assay type in all cases: cell-based
[1] = biological target: T1, β-adrenergic receptor (β1), guinea-pig right atrium (Cavia porcellus, UniProt H0W3H1); test: Guinea-pig right atrium (β1): inhibition of isoprenaline-induced increase in heart rate; conditions: isolated guinea-pig right atrium, drug incubation 30 min, 37.5° C.
T1 construct: Spontaneously beating right atria are dissected from guinea-pigs; from tissue; host or cells: guinea-pig right atrium (strip with sinoatrial node)
T1 sequence (H0W3H1 1-470): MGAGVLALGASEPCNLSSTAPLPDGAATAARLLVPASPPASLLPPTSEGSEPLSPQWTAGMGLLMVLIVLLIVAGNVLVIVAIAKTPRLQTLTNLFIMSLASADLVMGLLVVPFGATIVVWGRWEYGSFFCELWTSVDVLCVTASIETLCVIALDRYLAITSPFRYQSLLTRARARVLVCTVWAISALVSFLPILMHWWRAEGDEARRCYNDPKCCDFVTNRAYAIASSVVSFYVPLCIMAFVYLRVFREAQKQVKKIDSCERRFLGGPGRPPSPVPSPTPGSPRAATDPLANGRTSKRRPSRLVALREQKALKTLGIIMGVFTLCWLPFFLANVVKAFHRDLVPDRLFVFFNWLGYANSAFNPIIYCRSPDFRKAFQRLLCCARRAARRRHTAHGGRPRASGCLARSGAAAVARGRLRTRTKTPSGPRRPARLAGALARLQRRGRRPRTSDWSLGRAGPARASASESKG
Protocol: 1. GUINEA-PIG RIGHT ATRIUM (β1)
Spontaneously beating right atria are dissected from guinea-pigs (400±50 g). A triangular strip of atrium, including the sinoatrial node is excised together with the anterior vena cava.
The vena is fixed to a glass muscle holder and the opposite atrial muscle is connected to a Grass isometric transducer. Atria are suspended at optimal preload in a 100 ml Krebs-Henseleit solution, containing 2 g/l glucose, at 37.5° C. and aerated with 95% O2 and 5% CO2.
Heart rate and contractile force are recorded by means of a Grass FTO3C isometric transducer. Output signals amplified by an isometric transducer amplifier (J.S.I.) via a cardiotachometer (J.S.I.) are recorded on a Honeywell XYY' recorder. […] This produces a dose related increase in heart rate (a). After washing out isoprenaline a stabilization period of 15 min. is allowed. A drug is then added to the bath fluid for 30 min. During this incubation period possible direct chronotropic and inotropic effects of the drug are determined. Following this, a second dose-response curve for isoprenaline is produced by infusion during 10 minutes (b). The slope of the increase in rate is graphically estimated for each period of isoprenaline addition and the ratio b/a is calculated. Based on solvent experiments a ratio of less than 0.70 is considered as the criterion of inhibitory activity. ED50 -values are estimated graphically.

[2] = biological target: T2, β-adrenergic receptor (β2), guinea-pig tracheal ring (Cavia porcellus, UniProt Q8K4Z4); test: Guinea-pig tracheal ring (β2): inhibition of isoprenaline-induced relaxation; conditions: guinea-pig tracheal ring, methacholine 1 μg/ml, isoprenaline 0.08 μg/ml, 35° C., read-out: β2 = ED50 tracheal ring (converted)
T2 construct: The trachea is dissected from guinea-pigs; from tissue; host or cells: guinea-pig tracheal smooth muscle (rings)
T2 sequence (Q8K4Z4 whole entry): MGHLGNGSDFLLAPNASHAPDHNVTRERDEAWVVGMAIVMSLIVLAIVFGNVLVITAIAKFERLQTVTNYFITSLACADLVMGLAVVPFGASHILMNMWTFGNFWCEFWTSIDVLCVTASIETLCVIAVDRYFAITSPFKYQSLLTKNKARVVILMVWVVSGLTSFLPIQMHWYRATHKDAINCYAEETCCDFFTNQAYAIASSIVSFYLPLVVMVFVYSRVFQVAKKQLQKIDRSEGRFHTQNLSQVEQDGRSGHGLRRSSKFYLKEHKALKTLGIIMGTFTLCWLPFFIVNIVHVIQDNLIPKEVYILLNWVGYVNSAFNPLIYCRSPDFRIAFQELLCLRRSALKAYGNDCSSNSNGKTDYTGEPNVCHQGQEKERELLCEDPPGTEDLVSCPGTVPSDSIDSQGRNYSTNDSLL
Source text: (§1) 2. GUINEA-PIG TRACHEAL RING (β2)
(§2) The trachea is dissected from guinea-pigs (400±50 g). Four rings, approximately 8 mm in width, are then cut from each trachea. Cartilaginous parts of the tracheal ring are mounted horizontally between two metal rods, one of which is attached to a glass organholder, the other rod being connected to a Grass isometric transducer. Using such a technique the tracheal smooth muscle is suspended optimally i.e. midway between the cartilaginous parts. the prepared rings are suspended in a 100 ml organ chamber filled with Tyrode solution, maintained at 35° C. and aerated with 95% O2 and 5% CO2. The preparation is maintained at tension of 1.5 g throughout the experiment. Tension changes recorded are thus an expression of contraction or relaxation. After a stabilization period of 30 min contraction is induced by adding methacholine (1 μg/ml) to the bath for a 10 min period. Addition of isoprenaline (0.08 μg/ml) for 4 min. in the presence of methacholine induces a relaxation of the tracheal ring. This procedure is repeated twice before adding the drug (t-33'; t-19') and once 30 min after addition of the drug. During the incubation period any direct effects of the drug are measured. A 50% inhibition of the agonist-induced response is used as the criterion of effectiveness and ED50 values (with fiducial limits) are determined by probit analysis.
(§3) The ratio of the ED50 -values obtained in respectively the tracheal ring test (β2) and in the right atrium test (β1) may be considered as an index of the cardioselectivity of the test drug.

[3] = system: β-adrenergic receptor (β2), guinea-pig tracheal ring; test: as above; conditions: ratio of ED50 tracheal ring / ED50 right atrium; for β2/β1 (ratio of the ED50 values, tracheal ring to right atrium; index of cardioselectivity): Table I
Source text: as §1, §2, §3

[4] = Table I, ED50 estimated graphically
[5] = Table I, 30 min after drug, probit analysis

Row | IC50 [2, 5] [nM] | IC50 ([2]; Table II) [nM] | Compound | IC50 [1, 4] [nM] | β2/β1 (ratio of the ED50 values, tracheal ring to right atrium; index of cardioselectivity) [3] | IC50 ([1]; Table II, read-out: β1 = ED50 right atrium (converted)) [nM] | β2/β1 (ratio of the ED50 values; index of cardioselectivity) ([3]; Table II)
1 | 343 |  | O=c1[nH]c2ccc(Cl)cc2n1CC1CCCN(CC(O)COc2cccc3ccccc23)C1 (stereo not drawn) [1-naphthalenyl, 6-Cl] | 10.7 | 32 |  | 
2 | 2900 |  | O=c1[nH]c2ccccc2n1CC1CCCN(CC(O)COc2cccc3ccccc23)C1 (stereo not drawn) [1-naphthalenyl, H] | 23.2 | 125 |  | 
3 |  | 48.8 | O=c1[nH]c2ccccc2n1CC1CCCN(CC(O)C2COc3ccccc3O2)C1 (stereo not drawn) [1-{1-[2-(2,3-dihydro-1,4-benzodioxin-2-yl)-2-hydroxyethyl]-3-piperidinylmethyl}-1,3-dihydro-2H-benzimidazol-2-one] |  |  | 12.2 | 4
4 | 48.8 |  | Cc1cccc(OCC(O)CN2CCCC(Cn3c(=O)[nH]c4ccccc43)C2)c1C (stereo not drawn) [2,3-(CH3)2C6 H3, H] | 6.1 | 8 |  | 
5 | 391 |  | CCOc1ccccc1OCC(O)CN1CCCC(Cn2c(=O)[nH]c3ccc(Cl)cc32)C1 (stereo not drawn) [2-(C2 H5 O)C6 H4,6-Cl] | 21.7 | 18 |  | 
6 | 23.5 |  | CCOc1ccccc1OCC(O)CN1CCCC(Cn2c(=O)[nH]c3ccccc32)C1 (stereo not drawn) [2-(C2 H5 O)C6 H4, H] | 5.88 | 4 |  | 
7 | 48.8 |  | CCc1ccccc1OCC(O)CN1CCCC(Cn2c(=O)[nH]c3ccccc32)C1 (stereo not drawn) [2-(C2 H5)C6 H4, H] | 6.1 | 8 |  | 
8 | 45.7 |  | C=CCOc1ccccc1OCC(O)CN1CCCC(Cn2c(=O)[nH]c3ccccc32)C1 (stereo not drawn) [2-(CH2CHCH2 O)C6 H4, H] | 2.86 | 16 |  | 
9 | 85.4 |  | C=CCc1ccccc1OCC(O)CN1CCCC(Cn2c(=O)[nH]c3ccccc32)C1 (stereo not drawn) [2-(CH2CHCH2)C6 H4, H] | 5.93 | 14 |  | 
10 | 2.95 |  | CC(=O)c1ccccc1OCC(O)CN1CCCC(Cn2c(=O)[nH]c3ccccc32)C1 (stereo not drawn) [2-(CH3 CO)C6 H4, H] | 2.95 | 1 |  | 
11 | 89.7 |  | COc1ccccc1OCC(O)CN1CCCC(Cn2c(=O)[nH]c3ccc(Cl)cc32)C1 (stereo not drawn) [2-(CH3 O)C6 H4,6-Cl, 6-chloro-1,3-dihydro-1-{1-[2-hydroxy-3-(2-methoxyphenoxy)propyl]-3-piperidinylmethyl}-2H-benzimidazol-2-one] | 1.41 | 63 |  | 
12 | 12.2 |  | COc1ccccc1OCC(O)CN1CCCC(Cn2c(=O)[nH]c3ccccc32)C1 (stereo not drawn) [2-(CH3 O)C6 H4, H, 1,3-dihydro-1-{1-[2-hydroxy-3-(2-methoxyphenoxy)propyl]-3-piperidinylmethyl}-2H-benzimidazol-2-one] | 2.43 | 5 |  | 
13 | 91 |  | CC(C)Oc1ccccc1OCC(O)CN1CCCC(Cn2c(=O)[nH]c3ccccc32)C1 (stereo not drawn) [2-(iC3 H7 O)C6 H4, H] | 11.4 | 8 |  | 
14 | 22.8 |  | CCCOc1ccccc1OCC(O)CN1CCCC(Cn2c(=O)[nH]c3ccccc32)C1 (stereo not drawn) [2-(nC3 H7 O)C6 H4, H] | 5.69 | 4 |  | 
15 | 119 |  | O=c1[nH]c2ccccc2n1CC1CCCN(CC(O)COc2ccccc2Br)C1 (stereo not drawn) [2-BrC6 H4, H] | 5.43 | 22 |  | 
16 | 181 |  | N#Cc1ccccc1OCC(O)CN1CCCC(Cn2c(=O)[nH]c3ccc(Cl)cc32)C1 (stereo not drawn) [2-CNC6 H4,6-Cl] | 11.3 | 16 |  | 
17 | 12.3 |  | N#Cc1ccccc1OCC(O)CN1CCCC(Cn2c(=O)[nH]c3ccccc32)C1 (stereo not drawn) [2-CNC6 H4, H] | 6.15 | 2 |  | 

Row | IC50 [2, 5] [nM] | IC50 ([2]; Table II) [nM] | Compound | IC50 [1, 4] [nM] | β2/β1 (ratio of the ED50 values, tracheal ring to right atrium; index of cardioselectivity) [3] | IC50 ([1]; Table II, read-out: β1 = ED50 right atrium (converted)) [nM] | β2/β1 (ratio of the ED50 values; index of cardioselectivity) ([3]; Table II)
18 | 2820 |  | Cc1cc(OCC(O)CN2CCCC(Cn3c(=O)[nH]c4ccccc43)C2)cc(C)c1Cl (stereo not drawn) [3,5-(CH3)2-4-ClC6 H2, H] | 5.63 | 500 |  | 
19 | 50.6 |  | Cc1cccc(OCC(O)CN2CCCC(Cn3c(=O)[nH]c4ccccc43)C2)c1 (stereo not drawn) [3-(CH3)C6 H4, H] | 6.32 | 8 |  | 
20 | 47.2 |  | CC(=O)c1ccc(OCC(O)CN2CCCC(Cn3c(=O)[nH]c4ccccc43)C2)cc1 (stereo not drawn) [4-(CH3 CO)C6 H4, H] | 5.9 | 8 |  | 
21 | 410 |  | CC(=O)Nc1ccc(OCC(O)CN2CCCC(Cn3c(=O)[nH]c4ccccc43)C2)cc1 (stereo not drawn) [4-(CH3 CONH)C6 H4, H] | 5.7 | 72 |  | 
22 | 48.6 |  | COc1ccc(OCC(O)CN2CCCC(Cn3c(=O)[nH]c4ccccc43)C2)cc1 (stereo not drawn) [4-(CH3 O)C6 H4, H] | 24.3 | 2 |  | 
23 | 46.8 |  | CSc1ccc(OCC(O)CN2CCCC(Cn3c(=O)[nH]c4ccccc43)C2)cc1 (stereo not drawn) [4-(CH3 S)C6 H4, H] | 1.47 | 32 |  | 
24 | 1430 |  | CCCc1ccc(OCC(O)CN2CCCC(Cn3c(=O)[nH]c4cc(F)ccc43)C2)cc1 (stereo not drawn) [4-(nC3 H7)C6 H4,5-F] | 22.6 | 63 |  | 
25 | 161 |  | CCCCNC(=O)Nc1ccc(OCC(O)CN2CCCC(Cn3c(=O)[nH]c4ccccc43)C2)cc1 (stereo not drawn) [4-(nC4 H9NHCONH)C6 H4, H] | 20.2 | 8 |  | 
26 | 2720 |  | O=c1[nH]c2ccccc2n1CC1CCCN(CC(O)COc2ccc(Br)cc2)C1 (stereo not drawn) [4-BrC6 H4, H] | 10.9 | 250 |  | 
27 | 769 |  | O=c1[nH]c2ccccc2n1CC1CCCN(CC(O)COc2ccc(Cl)cc2)C1 (stereo not drawn) [4-ClC6 H4, H] | 48.1 | 16 |  | 
28 | 714 |  | O=c1[nH]c2cc(Cl)ccc2n1CC1CCCN(CC(O)COc2ccc(F)cc2)C1 (stereo not drawn) [4-FC6 H4,5-Cl] | 11.5 | 62 |  | 
29 | 184 |  | O=c1[nH]c2ccc(Cl)cc2n1CC1CCCN(CC(O)COc2ccc(F)cc2)C1 (stereo not drawn) [4-FC6 H4,6-Cl] | 11.5 | 16 |  | 
30 | 25 |  | O=c1[nH]c2ccccc2n1CC1CCCN(CC(O)COc2ccc(F)cc2)C1 (stereo not drawn) [4-FC6 H4, H] | 3.13 | 8 |  | 
31 | 192 |  | O=c1[nH]c2cc(Cl)ccc2n1CC1CCCN(CC(O)COc2ccccc2)C1 (stereo not drawn) [C6 H5,5-Cl] | 12 | 16 |  | 
32 | 12.5 |  | O=c1[nH]c2cc(F)ccc2n1CC1CCCN(CC(O)COc2ccccc2)C1 (stereo not drawn) [C6 H5,5-F] | 3.13 | 4 |  | 
33 | 23.3 |  | O=c1[nH]c2ccccc2n1CC1CCCN(CC(O)COc2ccccc2)C1 (stereo not drawn) [C6 H5, H] | 1.65 | 15 |  | 
